From PubChem BioAssay (NCI) come the findings set out here.

Molecules are shown by their SMILES.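 Following 48 hours of exposure in 96-well plates, responses at five concentrations were used to interpolate endpoints linearly. TGI is the concentration that stops growth completely.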

Some test systems named below: SR leukemia; SNB-19 CNS; SK-MEL-28 melanoma; MCF7 breast; IGROV1 ovarian; T-47D breast; COLO 205 colon; MDA-MB-231 breast; ACHN renal; NCI-H23 lung; NCI-H460 lung; A498 renal; NCI-H226 lung; OVCAR-4 ovarian; TK-10 renal; DU-145 prostate; UO-31 renal; U251 CNS; SK-OV-3 ovarian; BT-549 breast.
Common to all, as to assay: NCI-60 cell line screen, 48 h

Take `CC1C[C@]2(C)C(=NCCN)Nc3ccccc3[C@@H]2N(C)c2ccccc21` (stereo partly drawn): the TGI in the assay with SR leukemia stood at 8.73 µM; in the assay with SNB-19 CNS, 27.7 µM; in the assay with SK-MEL-28 melanoma, 24.3 µM; in the assay with MCF7 breast, 21.3 µM; with IGROV1 ovarian, 27.6 µM; in the assay with T-47D breast, 39.2 µM. Besides, the TGI in the assay on COLO 205 colon was 5.14 µM; in the assay with MDA-MB-231 breast, 21.1 µM; in the assay with ACHN renal, 29.9 µM; with NCI-H23 lung, 31.4 µM; in the assay on NCI-H460 lung, 24 µM; in the assay with A498 renal, 30.5 µM. Also, the TGI turned out to be 30.2 µM in the assay on NCI-H226 lung; 30.4 µM in the assay on OVCAR-4 ovarian; 21.5 µM in the assay on TK-10 renal; 28.7 µM with DU-145 prostate; 23.2 µM in the assay with UO-31 renal.
Take `N#CC1=C(Nc2ccccc2)SC=C(c2ccccc2)NC1=NCc1ccccc1`: the TGI in the assay on SR leukemia is 59.1 µM; in the assay with SNB-19 CNS, above 100 µM; in the assay with SK-MEL-28 melanoma it was above 100 µM; with U251 CNS, above 100 µM; in the assay on MCF7 breast, above 100 µM; in the assay on T-47D breast it was above 100 µM. In addition, the TGI with COLO 205 colon, in the assay with MDA-MB-231 breast, with ACHN renal, in the assay on NCI-H23 lung, with A498 renal and in the assay with OVCAR-4 ovarian was above 100 µM in each case. The TGI in the assay with SK-OV-3 ovarian, in the assay on TK-10 renal, with DU-145 prostate and in the assay with UO-31 renal was above 100 µM throughout.
`CN(C)CCNC(=O)c1ccc2nc3c(nc2c1)C(=O)c1ccccc1-3`: the TGI was 54.7 µM with SR leukemia; above 100 µM in the assay with SNB-19 CNS; above 100 µM in the assay with SK-MEL-28 melanoma; 71.5 µM with U251 CNS; above 100 µM with MCF7 breast; above 100 µM with IGROV1 ovarian. The TGI in the assay on COLO 205 colon is above 100 µM; in the assay with BT-549 breast, 41.3 µM; with ACHN renal it was above 100 µM; in the assay with NCI-H23 lung it was above 100 µM; in the assay with NCI-H460 lung, 38.6 µM; in the assay with A498 renal it was above 100 µM. For the same compound, the TGI in the assay on OVCAR-4 ovarian, with SK-OV-3 ovarian, with TK-10 renal, with DU-145 prostate and in the assay on UO-31 renal was above 100 µM in each case.
For the compound `N#Cc1[nH]c(=S)[nH]c1N`, the TGI in the assay with SR leukemia, with SNB-19 CNS, in the assay on SK-MEL-28 melanoma, with U251 CNS, in the assay with MCF7 breast and in the assay with IGROV1 ovarian was above 100 µM each time. In addition, the TGI in the assay with COLO 205 colon, with BT-549 breast, with ACHN renal, with NCI-H23 lung, in the assay on NCI-H460 lung and in the assay on A498 renal was above 100 µM throughout. For the same compound, the TGI with NCI-H226 lung, with OVCAR-4 ovarian, with SK-OV-3 ovarian, in the assay on TK-10 renal, in the assay on DU-145 prostate and in the assay on UO-31 renal was above 100 µM throughout.
As to `CC(O)CCCCC(O)CCC[C@H](O)[C@H]1CCC([C@H]2CCC([C@@H](O)CCCCCCCCCCCCC3=C[C@H](C)OC3=O)O2)O1` (stereo partly drawn), the TGI in the assay on SR leukemia came to 20.5 µM; in the assay with SNB-19 CNS, 20.2 µM; in the assay with SK-MEL-28 melanoma, 23.9 µM; with U251 CNS it was 20.6 µM; in the assay on MCF7 breast it was 16.3 µM; with IGROV1 ovarian, 21.1 µM. The TGI in the assay on COLO 205 colon came out at 23.7 µM; with BT-549 breast, 21.3 µM; with MDA-MB-231 breast it was 21.6 µM; with ACHN renal, 21.1 µM; in the assay with NCI-H23 lung, 19.5 µM; in the assay on NCI-H460 lung, 18.1 µM. For the same compound, the TGI in the assay on NCI-H226 lung was found to be 19.5 µM; in the assay on OVCAR-4 ovarian it was 25.9 µM; in the assay on SK-OV-3 ovarian, 22.1 µM; with TK-10 renal, 19.6 µM; in the assay with DU-145 prostate, 23.2 µM; in the assay on UO-31 renal, 19 µM.
Consider `COc1ccc(NC(=O)N(C)CC2(O)CCC(C(C)(C)C)CC2)cc1` (stereo not drawn), for which the TGI in the assay with SR leukemia, in the assay on SNB-19 CNS, in the assay with SK-MEL-28 melanoma, in the assay with U251 CNS, in the assay with MCF7 breast and in the assay on IGROV1 ovarian was above 100 µM throughout. For the same compound, the TGI in the assay on COLO 205 colon, in the assay with BT-549 breast, with MDA-MB-231 breast, in the assay with ACHN renal, in the assay with NCI-H23 lung and with NCI-H460 lung was above 100 µM each time. The TGI in the assay with A498 renal, in the assay with OVCAR-4 ovarian, with SK-OV-3 ovarian, in the assay with TK-10 renal, in the assay with DU-145 prostate and in the assay on UO-31 renal was above 100 µM each time.
In the case of `CC1(C)CC(=O)C(C=NC(=O)c2ccncc2)=C(O)C1`, the TGI in the assay with SNB-19 CNS, in the assay with SK-MEL-28 melanoma, with U251 CNS, in the assay with MCF7 breast, in the assay with IGROV1 ovarian and in the assay with COLO 205 colon was above 100 µM in each case. For the same compound, the TGI with BT-549 breast, with MDA-MB-231 breast, with ACHN renal, in the assay on NCI-H23 lung, in the assay with NCI-H460 lung and in the assay with NCI-H226 lung was above 100 µM in each case. Besides, the TGI with OVCAR-4 ovarian, in the assay on SK-OV-3 ovarian, in the assay with TK-10 renal, in the assay with DU-145 prostate and with UO-31 renal was above 100 µM each time.
`c1ccc(NN=C(c2ccccn2)c2ccccn2)nc1`: the TGI is above 100 µM in the assay on SNB-19 CNS; above 100 µM in the assay on SK-MEL-28 melanoma; above 61.9 µM in the assay on U251 CNS; above 100 µM in the assay with MCF7 breast; above 100 µM with IGROV1 ovarian; above 100 µM in the assay on COLO 205 colon. Also, the TGI with BT-549 breast was above 100 µM; in the assay on MDA-MB-231 breast, above 100 µM; in the assay with ACHN renal, above 100 µM; in the assay on NCI-H23 lung it was above 100 µM; in the assay on NCI-H460 lung, above 100 µM; in the assay on A498 renal it was 7.11 µM. Besides, the TGI was above 100 µM with OVCAR-4 ovarian; above 100 µM in the assay on SK-OV-3 ovarian; above 100 µM in the assay on TK-10 renal; above 100 µM in the assay with DU-145 prostate; 0.513 µM in the assay with UO-31 renal.
